Assays:
[1] = tested on: HuapoAI transgenic mice; assay: Evaluation of triglyceride and cholesterol level in HuapoAI transgenic mice; type: in vivo; conditions: Mus musculus, 168 h, 30 mg/kg daily oral gavage 7 days
Protocol: Five to six week old male mice, transgenic for human apoAI [C57Bl/6-tgn(apoa1)lrub, Jackson Laboratory, Bar Harbor, Me.] were housed five per cage (10″×20″×8″ with aspen chip bedding) with food (Purina 5001) and water available at all times. After an acclimation period of 2 weeks, animals were individually identified by ear notches, weighed, and assigned to groups based on body weight. Beginning the following morning, mice were dosed daily by oral gavage for 7 days using a 20 gauge, 1½″ curved disposable feeding needle (Popper & Sons). Treatments were test compounds (30 mg/kg), a positive control (fenofibrate, 100 mg/kg) or vehicle [1% carboxymethylcellulose (w/v)/0.25% Tween80 (w/v); 0.2 ml/mouse]. Prior to termination on day 7, mice were weighed and dosed. Three hours after dosing, animals were anesthetized by inhalation of isoflurane (2-4%; Abbott Laboratories, Chicago, Ill.) and blood obtained via cardiac puncture (0.7-1.0 ml). Whole blood was transferred to serum separator tubes (Vacutainer SST), chilled on ice, and permitted to clot. Serum was obtained after centrifugation at 4° C. and frozen until analysis for triglycerides, total cholesterol, compound levels, and serum lipoprotein profile by fast protein liquid chromatography (FPLC) coupled to an inline detection system. After sacrifice by cervical dislocation, the liver, heart and epididymal fat pads were excised and weighed.
The animals dosed with vehicle had average triglycerides values of 60-80 mg/dl, which were reduced by the positive control fenofibrate (33-58 mg/dl with a mean reduction of 37%). The animals dosed with vehicle had average total serum cholesterol values of 140-180 mg/dl, which were increased by fenofibrate (190-280 mg/dl, with a mean elevation of 41%). […] Fenofibrate increased the amount of HDLc (68-96 v-sec with a mean percent increase of 48%).
Glucose was measured colorimetrically using commercially purchased reagents (Sigma #315-500). According to the manufacturers, the procedures were modified from published work (McGowan, M. W., Artiss, J. D., Strandbergh, D. R. & Zak, B. Clin Chem, 20:470-5 (1974) and Keston, A. Specific colorimetric enzymatic analytical reagents for glucose. Abstract of papers 129th Meeting ACS, 31C (1956).); and depend on the release of a mole of hydrogen peroxide for each mole of analyte, coupled with a color reaction first described by Trinder (Trinder, P. Determination of glucose in blood using glucose oxidase with an alternative oxygen acceptor. Ann Clin Biochem, 6:24 (1969)). The absorbance of the dye produced is linearly related to the analyte in the sample. The assays were further modified in our laboratory for use in a 96 well format. Standards (Sigma #339-11, Sigma #16-11, and Sigma #CC0534 for glucose triglycerides and total cholesterol, respectively), quality control plasma (Sigma # A2034), and samples (2 or 5 μl/well) were measured in duplicate using 200 μl of reagent. An additional aliquot of sample, pipetted to a third well and diluted in 200 μl water, provided a blank for each specimen. Plates were incubated at room temperature (18, 15, and 10 minutes for glucose, triglycerides and total cholesterol, respectively) on a plate shaker (DPC Micormix 5) and absorbance read at 500 nm (glucose and total cholesterol) or 540 nm (triglycerides) on a plate reader (Wallac Victor 1420). Sample absorbances were compared to a standard curve (100-800, 10-500, and 100-400 mg/dl for glucose, triglycerides and total cholesterol, respectively). Values for the quality control sample were always within the expected range and the coefficient of variation for samples was below 10%. All samples from an experiment were assayed at the same time to minimize inter-assay variability.
Serum lipoproteins were separated and cholesterol quantitated with an in-line detection system. Sample was applied to a Superose® 6 HR 10/30 size exclusion column (Amersham Pharmacia Biotech) and eluted with phosphate buffered saline-EDTA at 0.5 ml/min. […]

CC(C)(Oc1ccc(OCCc2coc(-c3ccccc3)n2)cc1)C(=O)[O-].[Na+] [Example 3, Sodium 2-methyl-2-{4-[2-(2-phenyloxazol-4-yl)ethoxy]phenoxy}propionate]
melting point: 199 to 200 °C
change in vivo at 30 mg/kg ([1]; percent increase in FPLC HDLc area under the curve): 63%
inhibition in vivo at 30 mg/kg ([1]; serum, male human apoAI transgenic mice, read-out: % Triglyceride Reduction): 66%

Cc1cc(OCCc2nc(-c3ccccc3)oc2C)ccc1OCC(=O)O [Example 25, {2-Methyl-4-[2-(5-methyl-2-phenyloxazol-4-yl)ethoxy]phenoxy}acetic acid]
melting point: 133 °C

Cc1oc(-c2ccc(C(N)=O)cc2)nc1CCOc1ccc(OC(C)(C)C(=O)O)cc1 [Example 14, 2-(4-{2-[2-(4-Carbamoylphenyl)-5-methyloxazol-4-yl]ethoxy}phenoxy)-2-methylpropionic acid]
melting point: 126 to 127 °C

Cc1oc(-c2ccccc2)nc1CCOc1cccc(OC(C)(C)C(=O)O)c1 [Example 23, 2-methyl-2-{3-[2-(5-methyl-2-phenyloxazol-4-yl)ethoxy]phenoxy}propionic acid]
melting point: 140 to 141 °C

C#Cc1cccc(-c2nc(CCOc3ccc(OC(C)(C)C(=O)O)cc3)c(C)o2)c1 [Example 10, 2-(4-{2-[2-(3-Ethynylphenyl)-5-methyloxazol-4-yl]ethoxy}phenoxy)-2-methylpropionic acid]
melting point: 131 to 134 °C

C#Cc1ccc(-c2nc(CCOc3ccc(OC(C)(C)C(=O)O)cc3)c(C)o2)cc1 [Example 11, 2-(4-{2-[2-(4-Ethynylphenyl)-5-methyloxazol-4-yl]ethoxy}phenoxy)-2-methylpropionic acid]
melting point: 137 to 139 °C

Cc1sc(-c2ccccc2)nc1CCOc1ccc(OC(C)(C)C(=O)O)cc1 [Example 35, 2-Methyl-2-{4-[2-(5-methyl-2-phenyl-thiazol-4-yl)-ethoxy]phenoxy}-2-methyl-propionic acid]
melting point: 163.5 °C
